Test [1] is described as follows: Inhibition of IL-2 induced JAK-1/JAK-3-associated murine T cell lymphoma cell proliferation. The format is functional, cell-based. The conditions noted are these: Mus musculus.
A short description of test [2]: Inhibition of IL-4 induced JAK-1/JAK-3 associated murine T cell lymphoma cell proliferation. It is filed as functional, cell-based. Particulars: Mus musculus.
The subject of another test is CTLL. Put plainly: Inhibition of PMA-induced murine T cell lymphoma cell proliferation. The format is functional, cell-based. Particulars: Mus musculus.
For test [3], the target named is Cyclin-dependent kinase 2 (Homo sapiens, UniProt P24941). Kind of test: Inhibition of cyclin dependent kinase 2.
The target of test [4] is Fibroblast growth factor receptor 2 (Homo sapiens, UniProt P21802). Kind of test: Inhibition of Fibroblast growth factor receptor 2.
Test [5] addresses Tyrosine-protein kinase HCK (Homo sapiens, UniProt P08631). Kind of test: Inhibition of protein kinase Hck.
Test [6] addresses T1, Inhibitor of nuclear factor kappa-B kinase subunit beta (Homo sapiens, UniProt O14920).
T1 sequence (O14920 whole entry): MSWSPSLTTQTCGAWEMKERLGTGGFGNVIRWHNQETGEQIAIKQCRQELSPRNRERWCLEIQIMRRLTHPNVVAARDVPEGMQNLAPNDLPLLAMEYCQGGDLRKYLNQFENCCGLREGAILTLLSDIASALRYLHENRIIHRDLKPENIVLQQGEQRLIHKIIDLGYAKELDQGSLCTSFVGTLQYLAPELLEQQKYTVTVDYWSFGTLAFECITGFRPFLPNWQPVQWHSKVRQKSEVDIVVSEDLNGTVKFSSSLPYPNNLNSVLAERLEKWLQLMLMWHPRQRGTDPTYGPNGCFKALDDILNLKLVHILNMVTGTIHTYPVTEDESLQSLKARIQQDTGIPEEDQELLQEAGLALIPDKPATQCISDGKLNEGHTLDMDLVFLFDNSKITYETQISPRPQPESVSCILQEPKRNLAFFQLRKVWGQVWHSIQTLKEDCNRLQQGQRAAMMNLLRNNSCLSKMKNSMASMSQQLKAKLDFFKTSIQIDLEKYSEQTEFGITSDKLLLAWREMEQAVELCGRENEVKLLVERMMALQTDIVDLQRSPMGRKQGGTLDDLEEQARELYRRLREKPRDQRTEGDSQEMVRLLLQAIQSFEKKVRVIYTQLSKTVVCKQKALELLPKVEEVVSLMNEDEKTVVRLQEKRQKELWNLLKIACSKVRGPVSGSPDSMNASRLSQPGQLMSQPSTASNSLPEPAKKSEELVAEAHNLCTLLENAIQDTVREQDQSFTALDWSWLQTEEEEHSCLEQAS
Put plainly: Inhibition of I-kappa-B kinase 2.

Test [7] concerns the target Protein kinase C alpha type (Homo sapiens, UniProt P17252). Kind of test: Inhibition of protein kinase C alpha.
In another test the target is Angiopoietin-1 receptor (Homo sapiens, UniProt Q02763). Kind of test: Inhibition of Tek kinase.
Test [8] addresses Vascular endothelial growth factor receptor 3 (Homo sapiens, UniProt P35916). Kind of test: Inhibition of Vascular endothelial growth factor receptor 3.
Test [9] concerns the target RAF proto-oncogene serine/threonine-protein kinase (Homo sapiens, UniProt P04049). Put plainly: Inhibition of protein kinase Raf.
Test [10] is described as follows: Inhibition of protein kinase cAMP-dependent protein kinase.

Chain of RAF proto-oncogene serine/threonine-protein kinase (P04049 whole entry): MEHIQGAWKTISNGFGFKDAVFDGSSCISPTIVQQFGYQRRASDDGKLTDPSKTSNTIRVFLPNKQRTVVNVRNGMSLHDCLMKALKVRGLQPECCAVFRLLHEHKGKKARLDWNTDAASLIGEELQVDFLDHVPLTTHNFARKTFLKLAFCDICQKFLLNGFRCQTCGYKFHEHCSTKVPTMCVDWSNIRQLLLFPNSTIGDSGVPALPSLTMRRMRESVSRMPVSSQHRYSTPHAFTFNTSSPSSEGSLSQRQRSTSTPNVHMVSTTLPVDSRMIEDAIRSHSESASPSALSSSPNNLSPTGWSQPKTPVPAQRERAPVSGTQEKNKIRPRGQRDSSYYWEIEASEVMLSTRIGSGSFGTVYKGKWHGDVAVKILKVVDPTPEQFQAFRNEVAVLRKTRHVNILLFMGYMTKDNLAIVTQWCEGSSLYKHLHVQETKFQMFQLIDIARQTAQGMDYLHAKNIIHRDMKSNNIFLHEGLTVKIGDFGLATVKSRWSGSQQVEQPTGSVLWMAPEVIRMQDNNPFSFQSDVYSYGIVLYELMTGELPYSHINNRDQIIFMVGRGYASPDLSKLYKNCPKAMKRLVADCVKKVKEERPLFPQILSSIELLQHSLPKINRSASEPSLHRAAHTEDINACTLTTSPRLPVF
Chain of Angiopoietin-1 receptor (Q02763 whole entry): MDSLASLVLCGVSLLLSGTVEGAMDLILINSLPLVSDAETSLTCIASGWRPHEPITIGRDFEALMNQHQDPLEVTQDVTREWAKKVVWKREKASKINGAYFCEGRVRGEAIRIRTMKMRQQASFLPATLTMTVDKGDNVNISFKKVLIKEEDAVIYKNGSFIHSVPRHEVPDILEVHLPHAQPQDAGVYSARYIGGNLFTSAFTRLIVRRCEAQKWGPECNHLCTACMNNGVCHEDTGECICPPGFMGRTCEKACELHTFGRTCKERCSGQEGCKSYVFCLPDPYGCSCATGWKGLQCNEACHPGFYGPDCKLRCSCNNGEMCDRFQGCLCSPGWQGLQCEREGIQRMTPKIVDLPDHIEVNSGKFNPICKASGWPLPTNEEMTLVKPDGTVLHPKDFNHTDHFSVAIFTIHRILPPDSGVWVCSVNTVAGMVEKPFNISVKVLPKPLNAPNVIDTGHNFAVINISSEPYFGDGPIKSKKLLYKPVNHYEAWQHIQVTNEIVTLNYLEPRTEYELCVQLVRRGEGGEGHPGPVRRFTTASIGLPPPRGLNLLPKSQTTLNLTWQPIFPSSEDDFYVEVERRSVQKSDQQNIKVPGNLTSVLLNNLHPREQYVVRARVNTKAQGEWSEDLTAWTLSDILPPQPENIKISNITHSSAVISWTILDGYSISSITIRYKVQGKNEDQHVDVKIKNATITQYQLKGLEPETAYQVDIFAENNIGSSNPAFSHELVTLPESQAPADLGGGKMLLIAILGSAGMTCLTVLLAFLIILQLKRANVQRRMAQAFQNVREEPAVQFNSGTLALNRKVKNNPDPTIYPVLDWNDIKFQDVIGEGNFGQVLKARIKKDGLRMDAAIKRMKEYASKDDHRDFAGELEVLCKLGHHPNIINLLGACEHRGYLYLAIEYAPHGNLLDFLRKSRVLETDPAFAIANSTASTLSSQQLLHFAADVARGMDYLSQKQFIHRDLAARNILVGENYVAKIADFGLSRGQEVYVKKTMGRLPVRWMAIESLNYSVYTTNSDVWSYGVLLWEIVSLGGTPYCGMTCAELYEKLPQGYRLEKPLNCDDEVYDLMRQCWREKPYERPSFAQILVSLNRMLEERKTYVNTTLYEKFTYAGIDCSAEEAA
Chain of Tyrosine-protein kinase HCK (P08631 whole entry): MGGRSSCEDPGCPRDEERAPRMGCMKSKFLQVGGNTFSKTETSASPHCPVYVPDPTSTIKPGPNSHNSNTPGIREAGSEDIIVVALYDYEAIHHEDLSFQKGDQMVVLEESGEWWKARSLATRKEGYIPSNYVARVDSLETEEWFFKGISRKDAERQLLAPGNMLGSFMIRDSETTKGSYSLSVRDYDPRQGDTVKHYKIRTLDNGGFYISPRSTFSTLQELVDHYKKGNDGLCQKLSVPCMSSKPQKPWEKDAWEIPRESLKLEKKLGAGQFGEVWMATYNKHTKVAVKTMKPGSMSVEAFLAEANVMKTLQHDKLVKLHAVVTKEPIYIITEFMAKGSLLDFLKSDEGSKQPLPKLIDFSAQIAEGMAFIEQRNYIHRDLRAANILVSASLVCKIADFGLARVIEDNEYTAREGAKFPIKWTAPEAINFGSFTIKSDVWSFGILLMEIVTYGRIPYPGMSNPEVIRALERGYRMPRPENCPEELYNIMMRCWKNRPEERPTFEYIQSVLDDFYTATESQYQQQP
Chain of Vascular endothelial growth factor receptor 3 (P35916 whole entry): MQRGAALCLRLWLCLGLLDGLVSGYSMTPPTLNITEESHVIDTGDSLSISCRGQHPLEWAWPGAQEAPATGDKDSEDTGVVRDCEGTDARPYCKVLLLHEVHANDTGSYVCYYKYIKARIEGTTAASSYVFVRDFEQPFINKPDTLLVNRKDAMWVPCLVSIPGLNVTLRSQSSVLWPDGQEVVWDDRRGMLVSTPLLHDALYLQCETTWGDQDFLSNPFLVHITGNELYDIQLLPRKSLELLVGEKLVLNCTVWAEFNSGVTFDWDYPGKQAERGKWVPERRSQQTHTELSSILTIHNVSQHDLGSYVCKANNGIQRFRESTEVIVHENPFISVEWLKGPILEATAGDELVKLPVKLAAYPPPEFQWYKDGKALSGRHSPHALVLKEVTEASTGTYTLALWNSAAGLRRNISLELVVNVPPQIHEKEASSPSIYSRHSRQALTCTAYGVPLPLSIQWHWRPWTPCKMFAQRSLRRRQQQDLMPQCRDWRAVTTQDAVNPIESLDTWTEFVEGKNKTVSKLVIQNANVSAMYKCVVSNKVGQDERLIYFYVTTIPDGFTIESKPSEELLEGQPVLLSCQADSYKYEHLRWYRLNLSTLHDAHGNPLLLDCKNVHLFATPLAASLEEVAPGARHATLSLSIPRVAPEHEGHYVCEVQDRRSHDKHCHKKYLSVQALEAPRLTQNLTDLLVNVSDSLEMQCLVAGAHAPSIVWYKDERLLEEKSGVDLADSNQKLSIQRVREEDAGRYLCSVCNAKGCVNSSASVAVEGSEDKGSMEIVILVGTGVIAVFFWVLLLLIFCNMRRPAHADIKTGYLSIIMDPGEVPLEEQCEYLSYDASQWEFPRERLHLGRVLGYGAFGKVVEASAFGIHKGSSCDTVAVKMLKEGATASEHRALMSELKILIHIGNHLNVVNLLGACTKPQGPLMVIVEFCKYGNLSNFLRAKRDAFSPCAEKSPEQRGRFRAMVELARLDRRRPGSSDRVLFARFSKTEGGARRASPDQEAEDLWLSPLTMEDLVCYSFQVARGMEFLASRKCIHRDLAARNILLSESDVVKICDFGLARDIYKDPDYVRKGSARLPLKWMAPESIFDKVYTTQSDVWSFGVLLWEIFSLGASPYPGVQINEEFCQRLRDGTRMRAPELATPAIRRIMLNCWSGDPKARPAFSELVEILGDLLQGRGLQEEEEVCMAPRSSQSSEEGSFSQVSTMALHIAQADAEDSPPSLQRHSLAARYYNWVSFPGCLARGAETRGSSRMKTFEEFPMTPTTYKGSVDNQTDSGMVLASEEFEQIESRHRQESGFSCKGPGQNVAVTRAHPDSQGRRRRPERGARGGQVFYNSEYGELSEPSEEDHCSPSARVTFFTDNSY

As a reminder, the IC50 is the point on the concentration scale where inhibition reaches its midpoint. On to `CC(C)(C)c1nc2c3ccc(F)cc3c3c(=O)[nH]ccc3c2[nH]1`, for which the IC50 in test [1] was 100 nM; in test [2] it was 52 nM; with CTLL it was 3.1 µM; in test [3], 3.3 µM; in test [4], 940 nM; in test [5], 7.7 µM. The IC50 in [6] was 300 nM; in test [7], 1200 nM; against Angiopoietin-1 receptor, 24 µM; in test [8] it was 690 nM; in test [9] it was more than 10 µM; in test [10], 7.1 µM.

(Values after ChEMBL document CHEMBL1135866, “Photochemical preparation of a pyridone containing tetracycle: a Jak protein kinase inhibitor” (Bioorg Med Chem Lett, 2002).)
